Results reported in patent US20110212834A1, “Pesticidal Compound Mixtures” (BAYER CROPSCIENCE AG, priority 2009, published 2011).

Columns and labels:
Type in all cases: in vivo
Details in all cases: 144 h, single compound, after 6 d
Myzus persicae = Myzus persicae test, spray treatment of infested cabbage leaves
Protocol: (§1) To produce a suitable preparation of active compound, 1 part by weight of active compound is mixed with the stated amount of solvent and emulsifier, and the concentrate is diluted with emulsifier-containing water to the desired concentration.
Cabbage leaves (Brassica oleracea) which are heavily infested by the green peach aphid (Myzus persicae) are treated by being sprayed with the preparation of the active compound at the desired concentration.
After the specified period of time, the mortality in % is determined. 100% means that all the aphids have been killed; 0% means that none of the aphids have been killed.

Phaedon cochleariae = Phaedon cochleariae larvae test, sprayed cabbage leaves
Protocol: as §1
Cabbage leaves (Brassica oleracea) are treated by being sprayed with the preparation of the active compound at the desired concentration and are infested with larvae of the mustard beetle (Phaedon cochleariae) as long as the leaves are still moist.
(§2) After the specified period of time, the mortality in % is determined. 100% means that all the beetle larvae have been killed; 0% means that none of the beetle larvae have been killed. According to the present application in this test e.g. the following combinations show a synergistic effect in comparison to the single compounds: […]

Spodoptera frugiperda = Spodoptera frugiperda test, sprayed cabbage leaves
Protocol: as §1
Cabbage leaves (Brassica oleracea) are treated by being sprayed with the preparation of the active compound at the desired concentration and are infested with larvae of the fall army worm (Spodoptera frugiperda) as long as the leaves are still moist.
as §2, with “caterpillars” for “beetle larvae”

Tetranychus urticae = test: Tetranychus test (OP-resistant), sprayed bean plants
Protocol: as §1
Bean plants (Phaseolus vulgaris) which are heavily infested with all stages of the two-spotted spider mite (Tetranychus urticae) are treated by being sprayed with the preparation of the active compound at the desired concentration.
After the specified period of time, mortality in % is determined. 100% means that all the spider mites have been killed; 0% means that none of the spider mites have been killed.

Row | SMILES | mortality at 500 g/ha (Myzus persicae) | mortality at 500 g/ha (Phaedon cochleariae) | mortality at 500 g/ha (Spodoptera frugiperda) | also measured
1 | OC(Cc1ccccc1Cl)(Cn1nc[nH]c1=S)C1(Cl)CC1 (stereo not drawn) [Prothioconazole] | 0% | – | – | –
2 | CC(C)(C)C(O)(CCc1ccc(Cl)cc1)Cn1cncn1 (stereo not drawn) [Tebuconazole, tebuconazole] | 0% | 0% | 0% | –
3 | CC(C1CC1)C(O)(Cn1cncn1)c1ccc(Cl)cc1 (stereo not drawn) [Cyproconazole, cyproconazole] | 0% | 0% | – | mortality at 500 g/ha (Tetranychus urticae; 500 g/ha): 0%
4 | CC(C)C1CCC(Cc2ccc(Cl)cc2)C1(O)Cn1cncn1 (stereo not drawn) [Ipconazole, ipconazole] | 0% | 0% | 0% | –
5 | CC1(C)[C@H](C=C(Cl)Cl)[C@H]1C(=O)OCc1c(F)c(F)cc(F)c1F [Transfluthrin] | – | – | – | mortality at 20 g/ha (Phaedon cochleariae; 20 g/ha): 0%; mortality at 20 g/ha (Myzus persicae; 20 g/ha): 0%; mortality at 100 g/ha (Myzus persicae; 100 g/ha): 80%; mortality at 4 g/ha (Spodoptera frugiperda; 4 g/ha): 50%; mortality at 100 g/ha (Tetranychus urticae; 100 g/ha): 0%
